# US9682965B2, “Fumagillol heterocyclic compounds and methods of making and using same” (Zafgen, Inc., priority 2015, dated 2017)
# Counter-ions that a name gives are not always drawn. Like-named read-outs stand apart in the source and are kept apart here.
# Tests used:
# recombinant human MetAP2 = recombinant human MetAP2 (Homo sapiens (Human), UniProt P50579); experiment: recombinant human MetAP2 enzyme inhibition assay; format: biochemical
# Protocol: Compounds are tested for their capacity to inhibit recombinant human MetAP2 activity using the following assay.
# Flag tagged Human recombinant MetAP2 expressed and isolated for use as the enzyme source. 10 mM stock solutions of compounds were prepared in 100% DMSO and further diluted in 100% DMSO required concentration to 1 mM stocks. The stock compound solutions and DMSO vehicle controls were diluted to target final compound concentrations using assay buffer to a final concentration of 50 mM HEPES containing 100 mM NaCl, pH adjusted to 7.5. The MAS peptide was formulated to a 7.5 mM stock in distilled water and prior to use further diluted 1:4. […] 40 μl of enzyme was mixed with 100 μl of MnCl2 then further diluted in assay buffer to a final concentration of 16 μg/ml. To test for compound effect on MetAP2 enzyme activity, 5 μl of test compound, 10 μl of MAS substrate/amino acid oxidase mixture, 10 μl of MetAP2 was added to test wells in a 384 well black plate with blank wells containing no enzyme, replaced with 10 μl of assay buffer. All compounds were tested in duplicate on two occasions on the same day.
# The plate was sealed with a TopSeal A cover and mixed briefly on an orbital mixer at 900 rpm. The plate was incubated for a further 25 minutes at 25° C. A 5× stock of Amplex buffer was prepared (0.25M sodium phosphate, pH 7.4) and stored at 4° C. […] 25 μl detection reagent was added to each well of the test plate, which was re-sealed and mixed briefly on an orbital shaker.
# [1] = system: Diet Induced Obese (DIO) C57BL/6 mice; experiment: 10 day DIO mouse model (body weight, food intake, hematology, blood chemistry); format: in vivo; settings: 240 h, read-out: DIO Mouse 10-day weight loss vs vehicle; for inhibition in vivo at 0.1 mg/kg: 0.1 mpk sc; for inhibition in vivo at 1 mg/kg: 1.0 mpk sc
# Outline: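 DIO C57BL/6 mice on 60% kcal fat diet received compounds subcutaneously once daily for 10 days at 1.0, 0.5, 0.3, 0.1 or 0.03 mpk, in 10% DMSO in water, after 3-day vehicle acclimation. Body weight and food intake were recorded daily. Hematology and blood chemistry were taken on Day 11, 24 h post-final dose.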
# [2] = system: Male Sprague Dawley rats on high fat diet; experiment: 11 day rat DIO model (body weight, food intake, hematology, blood chemistries); format: in vivo; settings: 264 h, read-out: DIO Rat 11-day weight loss vs vehicle
# Outline: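 Male Sprague Dawley rats on 45% high-fat diet, acclimated 3 days to vehicle injections, then given compound (0.03-1.0 mg/kg) or vehicle (10% DMSO in water) sc once daily for 11 days. Body weight and food intake recorded daily. Blood taken about 2 h after the final dose for hematology and chemistry.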
# [3] = system: pregnant Sprague Dawley rats (embryo/fetal development)
# Source text: Study Summary Rat Embryofetal:
# The objective of this study design was to evaluate the potential effects of disclosed compounds on embryo/fetal development when given subcutaneously to pregnant rats once every three days during the critical period of organogenesis (Gestation Days 6-18). Female, Sprague Dawley rats, approximately 10 weeks of age, time bred, were ordered from a certified vendor and housed individually housed in stainless steel cages suspended over flush pans, on a 12-hour light-dark cycle (0700-1900) at 20-26° C. and 30-70% humidity. Rats were fed a standard rodent chow and provided water ad libitum. Rats were received and housed in the facility for a period of approximately 1 to 2 days.
# Compounds were formulated using 100% DMSO mixed in Sterile Water for Injection, resulting in 2% DMSO solution in water. If necessary, due to limited solubility of a test article, a higher percentage of DMSO solution in water was used. Groups of 8 mated and presumed pregnant female rats were given subcutaneous doses of vehicle or test article, once every three days, beginning on Gestation Day 6 and ending on Gestation Day 18 (Days 6, 9, 12, 15, and 18), maintained two more days, and then euthanized and necropsied on Gestation Day 20. Body weights was recorded for all animals on Gestation Days 5 (purpose of randomization), 6, 9, 12, 15, 18, and 20 (scheduled euthanasia). Food consumption by weight was recorded on Gestation Days 6, 9, 12, 15, 18, and 20 (scheduled termination).
# At necropsy, the dams were examined visually for external abnormalities including palpable masses. The abdominal, thoracic, and cranial cavities and their contents were examined for abnormalities and findings will be recorded. The reproductive tract were examined to record the number of ovarian corpora lutea, the number and location of uterine implantation sites noting the position of the cervix, and the number of early resorptions, late resorptions, live fetuses, and dead fetuses. For dead fetuses and late resorptions, crown-to-rump length and weight were recorded, if possible, and the fetus was discarded. For viable fetuses, weight, sex, and grossly visible external abnormalities were recorded.
# [4] = DIO mouse, once a day for 10 days
# [5] = DIO mouse, 0.3 mpk sc, once a day for 10 days
# [6] = DIO rat, 0.3 mpk sc, once a day for 11 days
# [7] = DIO rat, 1.0 mpk sc, once a day for 11 days
# [8] = 6 mpk, subcutaneous, once every three days, Gestation Days 6-18, pregnant rats
# [9] = recombinant human MetAP2, MAS peptide substrate, 25 minutes at 25° C
# Sequence of recombinant human MetAP2 (P50579 whole entry): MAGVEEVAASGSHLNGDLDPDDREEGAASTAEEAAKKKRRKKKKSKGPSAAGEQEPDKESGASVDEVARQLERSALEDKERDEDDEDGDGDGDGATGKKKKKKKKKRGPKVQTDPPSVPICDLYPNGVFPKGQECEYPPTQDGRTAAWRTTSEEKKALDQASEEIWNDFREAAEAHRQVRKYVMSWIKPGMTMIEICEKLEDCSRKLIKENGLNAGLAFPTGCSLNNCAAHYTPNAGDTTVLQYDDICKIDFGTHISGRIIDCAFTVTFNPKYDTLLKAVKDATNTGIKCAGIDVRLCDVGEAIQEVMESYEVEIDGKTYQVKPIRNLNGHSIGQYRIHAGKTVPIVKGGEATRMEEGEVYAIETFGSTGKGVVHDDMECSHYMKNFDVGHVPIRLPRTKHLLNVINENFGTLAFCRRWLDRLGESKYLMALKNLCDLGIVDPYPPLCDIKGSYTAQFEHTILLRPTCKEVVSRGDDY
Compound,IC50 (recombinant human MetAP2),"inhibition in vivo at 0.3 mg/kg ([1]; Mus musculus, sc)","inhibition in vivo at 0.3 mg/kg ([2]; Rattus norvegicus, sc)","Rat Embryofetal @6 mpk ([3]; rat, in vivo)","inhibition in vivo at 1 mg/kg ([2]; Rattus norvegicus, sc)","inhibition in vivo at 0.03 mg/kg ([1]; DIO mouse, 0.03 mpk sc, once a day for 10 days)","inhibition in vivo at 0.1 mg/kg [1, 4]","inhibition in vivo at 0.3 mg/kg [1, 5]","inhibition in vivo at 1 mg/kg [1, 4]","inhibition in vivo at 0.3 mg/kg [2, 6]","inhibition in vivo at 1 mg/kg [2, 7]","Rat Embryofetal @6 mpk [3, 8]",IC50 (recombinant human MetAP2; [9]),"inhibition in vivo at 0.5 mg/kg ([2]; DIO rat, 0.5 mpk sc, once a day for 11 days)"
"CCN(CC)CCNC(=O)CCC1CN(C(=O)O[C@@H]2CC[C@]3(CO3)[C@@H]([C@@]3(C)O[C@@H]3CC=C(C)C)[C@@H]2OC)C1 [Example 88, (3R,4S,5S,6R)-5-methoxy-4-((2R,3R)-2-methyl-3-(3-methylbut-2-enyl)oxiran-2-yl)-1-oxaspiro[2.5]octan-6-yl 3-(3-(2-(diethylamino)ethylamino)-3-oxopropyl)azetidine-1-carboxylate formate]",< 50 nM,9%,4.4%,Positive,,,,,,,,,,
"CO[C@@H]1[C@H](OC(=O)N2CC(CCN3CC(O)C3)C2)CC[C@]2(CO2)[C@H]1[C@@]1(C)O[C@@H]1CC=C(C)C [Example 6, (3R,4S,5S,6R)-5-methoxy-4-((2R,3R)-2-methyl-3-(3-methylbut-2-enyl)oxiran-2-yl)-1-oxaspiro[2.5]octan-6-yl 3-(2-(3-hydroxyazetidin-1-yl)ethyl)azetidine-1-carboxylate formate]",,11.8%,0.8%,Positive,4.6%,,,,,,,,,
"CO[C@@H]1[C@H](OC(=O)N2CC(CCN3CC(C)(O)C3)C2)CC[C@]2(CO2)[C@H]1[C@@]1(C)O[C@@H]1CC=C(C)C [Example 9, (3R,4S,5S,6R)-5-methoxy-4-((2R,3R)-2-methyl-3-(3-methylbut-2-enyl)oxiran-2-yl)-1-oxaspiro[2.5]octan-6-yl 3-(2-(3-hydroxy-3-methylazetidin-1-yl)ethyl)azetidine-1-carboxylate formate]",,7.4%,5.5%,Positive,4.8%,,,,,,,,,
"CCN(CC)CCCC1CN(C(=O)O[C@@H]2CC[C@]3(CO3)[C@@H]([C@@]3(C)O[C@@H]3CC=C(C)C)[C@@H]2OC)C1 [Example 104, (3R,4S,5S,6R)-5-methoxy-4-((2R,3R)-2-methyl-3-(3-methylbut-2-enyl)oxiran-2-yl)-1-oxaspiro[2.5]octan-6-yl 3-(3-(diethylamino)propyl)azetidine-1-carboxylate]",,,,,,-0.9%,8.3%,6.4%,10.9%,1.2%,9.9%,Positive,,
"CNC(=O)OC1CN(C(=O)O[C@@H]2CC[C@]3(CO3)[C@@H]([C@@]3(C)O[C@@H]3CC=C(C)C)[C@@H]2OC)C1 [Example 74, (3R,4S,5S,6R)-5-methoxy-4-((2R,3R)-2-methyl-3-(3-methylbut-2-enyl)oxiran-2-yl)-1-oxaspiro[2.5]octan-6-yl 3-(methylcarbamoyloxy)azetidine-1-carboxylate]",,,,,,,,12.3%,,7.9%,6%,Negative,< 50 nM,
"CCN(CC)CCC1CN(C(=O)O[C@@H]2CC[C@]3(CO3)[C@@H]([C@@]3(C)O[C@@H]3CC=C(C)C)[C@@H]2OC)C1 [Example 103, (3R,4S,5S,6R)-5-methoxy-4-((2R,3R)-2-methyl-3-(3-methylbut-2-enyl)oxiran-2-yl)-1-oxaspiro[2.5]octan-6-yl 3-(2-(diethylamino)ethyl)azetidine-1-carboxylate]",,,,,,,5.1%,6.7%,15.8%,,4.7%,Positive,< 50 nM,2.57%
"CO[C@@H]1[C@H](OC(=O)N2CC(CCN3CC(F)(F)C3)C2)CC[C@]2(CO2)[C@H]1[C@@]1(C)O[C@@H]1CC=C(C)C [Example 2, (3R,4S,5S,6R)-5-methoxy-4-((2R,3R)-2-methyl-3-(3-methylbut-2-enyl)oxiran-2-yl)-1-oxaspiro[2.5]octan-6-yl 3-(2-(3,3-difluoroazetidin-1-yl)ethyl)azetidine-1-carboxylate]",,,,,,,14.2%,19.7%,24.2%,5.7%,6.4%,Negative,,
"CO[C@@H]1[C@H](OC(=O)N2CC(OC(=O)N3CCN(C)CC3)C2)CC[C@]2(CO2)[C@H]1[C@@]1(C)O[C@@H]1CC=C(C)C [Example 78, 1-(((3R,4S,5S,6R)-5-methoxy-4-((2R,3R)-2-methyl-3-(3-methylbut-2-enyl)oxiran-2-yl)-1-oxaspiro[2.5]octan-6-yloxy)carbonyl)azetidin-3-yl 4-methylpiperazine-1-carboxylate]",,,,,,,,10.7%,,1.2%,,Positive,,
